# Tested on: HCT116
# Assay: cells
# Parameters: 2-deoxyglucose uptake inhibition, semi-automated resazurin/diaphorase fluorescence read-out of 2DG6P
# Conditions: Homo sapiens, HCT-116, 0.5 h; 2DG uptake
# Procedure: Resazurin-based 2DG uptake assay (semi-automated high throughput) All buffers, reagents and steps were identical with those described for the manual screening Washing and [compound left out] addition steps were done using an automated cell washer or a multidrop device, respectively. Screening was performed in a 384-well plates. 15,000 HCT116 cells/well seeded into 384-well black-walled, clear bottomed plates (CellBIND, Corning) and incubated overnight. Compounds were added at 30 µM (final concentration for screening or serial dilutions staring from 30 µM for IC50 determinations) from DMSO stocks using the acoustic nanoliter dispenser ECHO 520. Fluorescence intensity was read from the bottom with a SpectraMax Paradigm Multi-Mode Microplate Reader (Molecular devices) using SUPPORTING INFORMATION 259 control (which was set to 100 %) and cells without 2DG (set to 0 %) using Graph Pad Prism 5 or 6 software and IC50 values were determined using a four-parameter fit. The observed difference in the obtained IC50 values for Glupin in the automated screening vs. manually performed assay is most likely attributed to the minituarization that is required for high-troughput screening and usually requires different plate format (384 vs. 96-well plates) and different cell number. In this case, the automated assay was performed in 384-well plates (vs. 96-well plates for the manual assay) with 15,000 cells per well (vs. 40,000 cells per well in the 96-well plates). For kinetic measurements, 15,000 cells were seeded into black CellBIND 384-well plates (Corning) and allowed to attach overnight. Then, the plates were washed 3X with KRB buffer containing 0.1%BSA and treated with different concentrations of 2DG (0-60mM) and Glupin (0-1µM) for 30s to 30min. The uptake was determined using the resazurin/diaphorase system as described above. 2DG uptake was stopped by aspirating the 2DG solution followed by quick wash with ice-cold KRB buffer (0.1 % BSA). Km and Vmax were determined by fitting the data according to Michaelis-Menten using non-linear fitting. The glucose uptake assay monitored the inhibition of 2‐deoxyglucose (2DG) uptake as described by Yamamoto et al.25 Briefly, 2DG uptake is determined by quantification of the 2DG‐6‐phosphate (2DG6P) that accumulates inside the cells by using the diaphorase‐resazurin/‐resorufin system (see Figure S7 a).
row,IC50 [nM],Compound
1,> 30000,"CCOC(=O)Cn1c2c(c3cc(C(=O)OCC)ccc31)CC1CC2C(OC)CN1C(=O)c1cccnc1SC (centres unmarked) [5i, Ethyl 7-(2-ethoxy-2-oxoethyl)-5-methoxy-3-(2-(methylthio)nicotinoyl)-2,3,4,5,6,7-hexahydro-1H-2,6-methanoazocino[5,4-b]indole-10-carboxylate]"
2,3160,CCOC(=O)Cn1c2c(c3ccccc31)CC1CC2C(OC)CN1C(=O)N1CCOCC1 (centres unmarked) [5r]
3,14000 ± 4000,"CCOC(=O)Cn1c2c(c3ccccc31)CC1CC2C(OC)CN1C(=O)c1cc(C(F)(F)F)cnc1SC (racemic) [5y, (±)-Ethyl 2-(5-methoxy-3-(2-(methylthio)-5-(trifluoromethyl)nicotinoyl)-1,2,3,4,5,6-hexahydro-7H-2,6-methanoazocino[5,4-b]indol-7-yl)acetate]"
4,28000 ± 2000,"CCOC(=O)n1c2c(c3ccccc31)CC1CC2C(OC)CN1C(=O)c1cccnc1SC (racemic) [5p, (±)-ethyl 5-methoxy-3-(2-(methylthio)nicotinoyl)-3,4,5,6-tetrahydro-1H-2,6-methanoazocino[5,4-b]indole-7(2H)-carboxylate]"
5,87 ± 15,"CCCOC1CN(C(=O)c2cccnc2SC)C2Cc3c(n(CC(=O)OCC)c4ccccc34)C1C2 (racemic) [5d, (±)-Ethyl 2-(3-(2-(methylthio)nicotinoyl)-5-propoxy-1,2,3,4,5,6-hexahydro-7H-2,6-methanoazocino[5,4-b]indol-7-yl)acetate]"
6,120 ± 20,"C=CCOC1CN(C(=O)c2cccnc2SC)C2Cc3c(n(CC(=O)OCC)c4ccccc34)C1C2 (racemic) [5z, (±)-Ethyl 2-(5-(allyloxy)-3-(2-(methylthio)nicotinoyl)-1,2,3,4,5,6-hexahydro-7H-2,6-methanoazocino[5,4-b]indol-7-yl)acetate]"
7,540 ± 160,"CCOC(=O)Cn1c2c(c3ccccc31)CC1CC2C(OC)CN1C(=O)c1cccnc1F (racemic) [5u, (±)-Ethyl 2-(3-(2-fluoronicotinoyl)-5-methoxy-1,2,3,4,5,6-hexahydro-7H-2,6-methanoazocino[5,4-b]indol-7-yl)acetate]"
8,3000 ± 400,"CCOC(=O)Cn1c2c(c3ccccc31)CC1CC2C(OC)CN1C(=O)c1cccs1 (racemic) [5aq, (±)-Ethyl 2-(5-methoxy-3-(thiophene-2-carbonyl)-1,2,3,4,5,6-hexahydro-7H-2,6-methanoazocino[5,4-b]indol-7-yl)acetate]"
9,4220 ± 3460,"CCOC(=O)Cn1c2c(c3cc(OC)ccc31)CC1CC2C(OC)CN1C(=O)c1cccnc1SC (racemic) [5aa, (±)-Ethyl 2-(5,10-dimethoxy-3-(2-(methylthio)nicotinoyl)-1,2,3,4,5,6-hexahydro-7H-2,6-methanoazocino[5,4-b]indol-7-yl)acetate]"
10,13000 ± 3000,"CCOC(=O)Cn1c2c(c3ccccc31)CC1CC2C(OC)CN1C(=O)c1ccncc1 (racemic) [5ao, (±)-Ethyl 2-(3-isonicotinoyl-5-methoxy-1,2,3,4,5,6-hexahydro-7H-2,6-methanoazocino[5,4-b]indol-7-yl)acetate]"
11,210 ± 90,"CCOC(=O)Cn1c2c(c3cccc(Cl)c31)CC1CC2C(OC)CN1C(=O)c1cccnc1SC (racemic) [5h, (±)-Ethyl 2-(8-chloro-5-methoxy-3-(2-(methylthio)nicotinoyl)-1,2,3,4,5,6-hexahydro-7H-2,6-methanoazocino[5,4-b]indol-7-yl)acetate]"
12,220 ± 80,"COC1CN(C(=O)c2cccnc2SC)C2Cc3c(n(CC(=O)Oc4ccccc4)c4ccccc34)C1C2 (racemic) [5ae, (±)-phenyl 2-(5-methoxy-3-(2-(methylthio)nicotinoyl)-3,4,5,6-tetrahydro-1H-2,6-methanoazocino[5,4-b]indol-7(2H)-yl)acetate]"
13,14000 ± 5000,"CCOC(=O)Cn1c2c(c3ccccc31)CC1CC2C(OC)CN1C(=O)c1cncnc1 (racemic) [5ap, (±)-Ethyl 2-(5-methoxy-3-(pyrimidine-5-carbonyl)-1,2,3,4,5,6-hexahydro-7H-2,6-methanoazocino[5,4-b]indol-7-yl)acetate]"
14,8400 ± 3600,"CCOC(=O)CCn1c2c(c3ccccc31)CC1CC2C(OC)CN1C(=O)c1cccnc1SC (racemic) [5q, (±)-ethyl 3-(5-methoxy-3-(2-(methylthio)nicotinoyl)-3,4,5,6-tetrahydro-1H-2,6-methanoazocino[5,4-b]indol-7(2H)-yl)propanoate]"
15,1450 ± 600,CNC(=O)Cn1c2c(c3ccccc31)CC1CC2C(OC)CN1C(=O)c1cccnc1SC (centres unmarked) [5m]
16,16000 ± 1000,CNC(=O)Cn1c2c(c3ccccc31)CC1CC2C(OC)CN1C(=O)Cc1cccs1 (centres unmarked) [5au]

row,IC50 [nM],Compound
1,6700 ± 1600,"CCOC(=O)Cn1c2c(c3ccccc31)CC1CC2C(OC)CN1C(=O)c1c(C(F)(F)F)ccnc1SC (racemic) [5x, (±)-Ethyl 2-(5-methoxy-3-(2-(methylthio)-4-(trifluoromethyl)nicotinoyl)-1,2,3,4,5,6-hexahydro-7H-2,6-methanoazocino[5,4-b]indol-7-yl)acetate]"
2,10000 ± 4000,"COC1CN(C(=O)c2cccnc2SC)C2Cc3c(n(CC(=O)O)c4ccccc34)C1C2 (racemic) [5n, (±)-2-(5-methoxy-3-(2-(methylthio)nicotinoyl)-1,2,3,4,5,6-hexahydro-7H-2,6-methanoazocino[5,4-b]indol-7-yl)acetic acid]"
3,130 ± 50,"CCOC(=O)Cn1c2c(c3ccccc31)CC1CC2C(O)CN1C(=O)c1cccnc1SC (racemic) [5c, (±)-Ethyl 2-(5-hydroxy-3-(2-(methylthio)nicotinoyl)-1,2,3,4,5,6-hexahydro-7H-2,6-methanoazocino[5,4-b]indol-7-yl)acetate]"
4,93 ± 35,"CCCOC(=O)Cn1c2c(c3ccccc31)CC1CC2C(OC)CN1C(=O)c1cccnc1SC (racemic) [5l, (±)-Propyl 2-(-5-methoxy-3-(2-(methylthio)nicotinoyl)-3,4,5,6-tetrahydro-1H-2,6-methanoazocino[5,4-b]indol-7(2H)-yl)acetate]"
5,2300 ± 800,"CCOC(=O)Cn1c2c(c3ccccc31)CC1CC2C(OC)CN1C(=O)c1cccnc1 (racemic) [5t, (±)-Ethyl 2-(5-methoxy-3-nicotinoyl-3,4,5,6-tetrahydro-1H-2,6-methanoazocino[5,4-b]indol-7(2H)-yl)acetate]"
6,190 ± 120,"CCCSc1ncccc1C(=O)N1CC(OC)C2CC1Cc1c2n(CC(=O)OCC)c2ccccc12 (racemic) [5ai, (±)-Ethyl 2-(5-methoxy-3-(2-(propylthio)nicotinoyl)-1,2,3,4,5,6-hexahydro-7H-2,6-methanoazocino[5,4-b]indol-7-yl)acetate]"
7,55 ± 17,CCOC(=O)Cn1c2c(c3ccccc31)CC1CC2C(OC)CN1C(=O)c1cccnc1SC (racemic) [(±)-Glupin]
8,> 30000,CNC(=O)Cn1c2c(c3ccccc31)CC1CC2C(OC)CN1C(=O)c1cnccn1 (centres unmarked) [5av]
9,3400 ± 300,CCOC(=O)Cn1c2c(c3ccccc31)CC1CC2C(OC)CN1C(=O)c1ccco1 (centres unmarked) [5s]
10,1700 ± 700,"CCOC(=O)Cn1c2c(c3ccccc31)CC1CC2C(OC)CN1C(=O)c1cccnc1S(C)(=O)=O (racemic) [5ag, (±)-Ethyl 2-(5-methoxy-3-(2-(methylsulfonyl)nicotinoyl)-1,2,3,4,5,6-hexahydro-7H-2,6-methanoazocino[5,4-b]indol-7-yl)acetate]"
11,140 ± 70,"CCOC(=O)Cn1c2c(c3ccccc31)CC1CC2C(OC)CN1C(=O)c1cccnc1Sc1ccccc1 (racemic) [5ah, (±)-Ethyl 2-(5-methoxy-3-(2-(phenylthio)nicotinoyl)-1,2,3,4,5,6-hexahydro-7H-2,6-methanoazocino[5,4-b]indol-7-yl)acetate]"
12,> 30000,COC1CN(C(=O)c2cnccn2)C2Cc3c(n(CC(N)=O)c4ccccc34)C1C2 (centres unmarked) [5ax]
13,180 ± 60,"CCOC(=O)Cn1c2c(c3ccccc31)CC1CC2C(OC)CN1C(=O)c1cccnc1Br (racemic) [5aj, (±)-Ethyl 2-(3-(2-bromonicotinoyl)-5-methoxy-1,2,3,4,5,6-hexahydro-7H-2,6-methanoazocino[5,4-b]indol-7-yl)acetate]"
14,> 30000,CNC(=O)Cn1c2c(c3ccccc31)CC1CC2C(OC)CN1C(=O)N1CCOCC1 (centres unmarked) [5ay]
15,> 30000,"CCOC(=O)Cn1c2c(c3cc(C(=O)N4CCOCC4)ccc31)CC1CC2C(OC)CN1C(=O)c1cccnc1SC (racemic) [5ab, (±)-Ethyl 2-(5-methoxy-3-(2-(methylthio)nicotinoyl)-10-(morpholine-4-carbonyl)-1,2,3,4,5,6-hexahydro-7H-2,6-methanoazocino[5,4-b]indol-7-yl)acetate]"
16,1400 ± 200,"CCOC(=O)Cn1c2c(c3cc(Cl)ccc31)CC1CC2C(OC)CN1C(=O)c1cccnc1SC (racemic) [5g, (±)-Ethyl 2-(10-chloro-5-methoxy-3-(2-(methylthio)nicotinoyl)-1,2,3,4,5,6-hexahydro-7H-2,6-methanoazocino[5,4-b]indol-7-yl)acetate]"

# From PMC6900016, “Synthesis of Indomorphan Pseudo‐Natural Product Inhibitors of Glucose Transporters GLUT‐1 and ‐3” (Angewandte Chemie (International Ed. in English), 2019)
